Entries after “also recorded” stand apart in the source; their conditions may differ.
Legend:
[1] = Moisture sorption analysis; type: physicochemical; settings: for Moisture sorption: hygroscopicity: relative humidity scan; for XRPD pattern following the moisture sorption/desorption analysis: after moisture sorption experiment
Protocol: Moisture Sorption Analysis was performed with a Hiden IGAsorp Moisture Sorption Instrument. Samples were first dried at 0% relative humidity at 25° C. until an equilibrium weight was reached, or for a maximum of 4 hours. Samples were then subjected to an isothermal (25° C.) scan from 10-90% relative humidity in steps of 10%. The samples were allowed to equilibrate to an asymptotic weight at each point for a maximum of 4 hours. Following absorption, a desorption scan from 85% relative humidity (at 25° C.) was run in steps of −10%, again allowing a maximum of 4 hours for the samples to equilibrate. The resulting samples after desorption were dried at 80° C. for two hours and analyzed by XRPD.

[2] = Form conversion and degradation under thermal stress; settings: 60° C.; for Form conversion and degradation under thermal stress (XRPD, DSC): closed, protected from light, 7 and 14 days; for Thermal stability of form: 7 days
Protocol: Studies were also conducted to evaluate the likelihood for conversion and degradation under thermal stress.

[3] = Slurry studies (inter-conversion of the solid form); settings: for Slurry study: conversion of solid form: n-heptane, dichloromethane (CH2Cl2) and toluene, 7 and 14 days; for Slurries: conversion of solid form: 50/50 mixtures of Forms C, D and F in ethyl acetate, acetonitrile and isopropanol, room temperature
Protocol: Slurry experiments were performed on each form to determine propensity for conversion and to see if a unique form could be generated.

CC1=Nc2ccc(Cl)cc2S(=O)(=O)[N-]1.C[N+](C)(C)CCO [Form A]
Moisture sorption: hygroscopicity ([1]; 25° C.): Hygroscopic - deliquesced | Water absorbed at 60% RH ([1]; 25° C.): 2.4 wt % | XRPD pattern following the moisture sorption/desorption analysis [1]: consistent with Form A | Form conversion and degradation under thermal stress (XRPD, DSC) [2]: Started to convert to Form | Slurry study: conversion of solid form [3]: conversion to Form B was observed after seven days; also recorded: Converted to Form B after

CC1=Nc2ccc(Cl)cc2S(=O)(=O)[N-]1.CC1=Nc2ccc(Cl)cc2S(=O)(=O)[N-]1.O.[K+].[K+] [Form D]
Moisture sorption: hygroscopicity ([1]; 25° C.): hygroscopic; also recorded: Hygroscopic - | XRPD pattern following the moisture sorption/desorption analysis [1]: consistent with Form D | Thermal stability of form [2]: Stable (7 days) | Slurries: conversion of solid form [3]: conversion to Form D was observed in all solvents; also recorded: Converted to Form D

C1COCCO1.CC1=Nc2ccc(Cl)cc2S(=O)(=O)[N-]1.CC1=Nc2ccc(Cl)cc2S(=O)(=O)[N-]1.[K+].[K+] [Form F]
Moisture sorption: hygroscopicity ([1]; 25° C.): hygroscopic | XRPD pattern following the moisture sorption/desorption analysis [1]: consistent with Form D | Thermal stability of form [2]: Stable (7 days) | Slurries: conversion of solid form [3]: conversion to Form D was observed in all solvents; also recorded: Converted to Form D

CC1=Nc2ccc(Cl)cc2S(=O)(=O)[N-]1.[Na+] [sodium salt of diazoxide]
Hysteresis upon desorption / hydrate formation ([1]; 25° C., desorption scan): possible hydrate formation | Moisture sorption: hygroscopicity ([1]; 25° C.): hygroscopic | Moisture sorption: hygroscopicity ([1]; 25° C., listed as Sodium diazoxide salt): deliquescent - | Water absorbed at 60% RH ([1]; 25° C.): 1.2 wt % | Water absorbed at 80% RH ([1]; 25° C., 80% RH): 6.6 wt % | Form conversion and degradation under thermal stress (XRPD, DSC) [2]: little propensity to change form or degrade | Slurry study: conversion of solid form [3]: no propensity of inter-conversion
